Assay results reported in US20080207496A1, “ORGANIC COMPOUND” (priority 2003, published 2008).
Read-outs that look alike come from different tables or passages of the source.

Experiments:
[1] = biological target: calcium-independent protein kinase C isoform η (Homo sapiens, UniProt P24723); settings: cited from earlier work
[2] = test system: Peripheral blood mononuclear cells (PBMCs); settings: ConA +
[3] = test system: peripheral blood mononuclear cells; test: Intracellular calcium kinetics after PHA, flow cytometry (fluo-4/Fura-red); format: cell-based, human; settings: PHA 20 μg/ml; at micromolar concentrations
Experimental: Intracellular Calcium Kinetics. Human PBMC's are resuspended in calcium-free PBS and loaded with the calcium indicator dyes Fura-red and fluo-4 for 1 hour at room temperature shielded from light. […] At the end of dye loading, cells are washed in PBS and resuspended in RPMI 1640 and placed in growth conditions. One million cells of each sample are then analyzed by a flow cytometer and the mean FL-1 and FL-3 channels recorded every 8 seconds for a total of 240 seconds. At least eight thousand events are acquired during each eight-second interval. PHA (20 μg/ml) was added to activate T cells at time 0 seconds. The ratio FL-1/FL-3 is directly related to the intracellular calcium concentration and is expressed in arbitrary units (AU).

[4] = test system: IL-2 production by CD3+ T cells; settings: at concentrations less than 0.5 mM
[5] = biological target: conventional protein kinase C isoform β (Homo sapiens, UniProt P05771); settings: cited from earlier work
[6] = test system: IFN-gamma production by CD3+ T cells; settings: at concentrations less than 0.5 mM
[7] = biological target: T1, calcium-independent protein kinase C isoform ε (Homo sapiens, UniProt Q02156); settings: cited from earlier work
T1 sequence (Q02156 1-737): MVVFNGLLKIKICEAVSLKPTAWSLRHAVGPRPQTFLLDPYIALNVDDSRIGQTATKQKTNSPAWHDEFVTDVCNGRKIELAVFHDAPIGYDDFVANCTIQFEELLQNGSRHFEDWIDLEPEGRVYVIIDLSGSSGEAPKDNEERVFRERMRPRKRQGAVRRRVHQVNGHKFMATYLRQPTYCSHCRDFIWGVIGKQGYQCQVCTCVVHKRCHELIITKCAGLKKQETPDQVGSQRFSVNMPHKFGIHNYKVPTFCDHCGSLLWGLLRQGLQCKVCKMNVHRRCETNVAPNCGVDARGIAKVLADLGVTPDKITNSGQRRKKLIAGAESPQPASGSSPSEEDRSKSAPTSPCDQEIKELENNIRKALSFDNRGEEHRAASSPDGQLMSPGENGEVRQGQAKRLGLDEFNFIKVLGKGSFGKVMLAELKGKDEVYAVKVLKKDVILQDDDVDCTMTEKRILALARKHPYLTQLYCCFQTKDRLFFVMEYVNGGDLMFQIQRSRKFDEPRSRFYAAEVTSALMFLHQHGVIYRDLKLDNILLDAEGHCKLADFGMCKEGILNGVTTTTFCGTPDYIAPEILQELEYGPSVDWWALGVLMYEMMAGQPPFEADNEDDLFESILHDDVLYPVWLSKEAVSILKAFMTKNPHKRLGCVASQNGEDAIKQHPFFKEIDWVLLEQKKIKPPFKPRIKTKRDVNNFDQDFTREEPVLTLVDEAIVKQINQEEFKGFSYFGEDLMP

[8] = biological target: conventional protein kinase C isoform α (Homo sapiens, UniProt P17252); settings: cited from earlier work
[9] = Phase I and II studies in patients with advanced cancer; format: in vivo, human; settings: oral doses at 150 to 300 mg/day
[10] = biological target: calcium-independent protein kinase C isoform δ (Homo sapiens, UniProt Q05655); settings: cited from earlier work
[11] = biological target: conventional protein kinase C isoform γ (Homo sapiens, UniProt P05129); settings: cited from earlier work

Sequence of calcium-independent protein kinase C isoform η (P24723 whole entry, canonical isoform): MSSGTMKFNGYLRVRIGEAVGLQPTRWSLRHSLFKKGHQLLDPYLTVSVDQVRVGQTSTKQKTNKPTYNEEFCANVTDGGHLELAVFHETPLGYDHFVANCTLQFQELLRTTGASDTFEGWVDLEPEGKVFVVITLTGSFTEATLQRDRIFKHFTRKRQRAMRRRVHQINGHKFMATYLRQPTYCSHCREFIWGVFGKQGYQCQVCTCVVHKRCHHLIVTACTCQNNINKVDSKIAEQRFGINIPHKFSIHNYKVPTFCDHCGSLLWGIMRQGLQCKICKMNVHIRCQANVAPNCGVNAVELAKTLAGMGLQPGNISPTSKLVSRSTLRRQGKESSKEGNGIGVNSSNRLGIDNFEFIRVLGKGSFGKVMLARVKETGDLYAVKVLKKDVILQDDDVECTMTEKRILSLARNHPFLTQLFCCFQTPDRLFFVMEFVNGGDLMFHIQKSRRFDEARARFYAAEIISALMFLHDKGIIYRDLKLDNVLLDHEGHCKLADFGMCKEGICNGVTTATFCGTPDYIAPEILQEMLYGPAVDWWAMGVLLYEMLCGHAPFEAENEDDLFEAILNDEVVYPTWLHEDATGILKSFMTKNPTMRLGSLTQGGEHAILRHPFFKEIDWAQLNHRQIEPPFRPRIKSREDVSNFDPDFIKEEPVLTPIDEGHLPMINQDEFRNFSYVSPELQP
Sequence of calcium-independent protein kinase C isoform δ (Q05655 whole entry, canonical isoform): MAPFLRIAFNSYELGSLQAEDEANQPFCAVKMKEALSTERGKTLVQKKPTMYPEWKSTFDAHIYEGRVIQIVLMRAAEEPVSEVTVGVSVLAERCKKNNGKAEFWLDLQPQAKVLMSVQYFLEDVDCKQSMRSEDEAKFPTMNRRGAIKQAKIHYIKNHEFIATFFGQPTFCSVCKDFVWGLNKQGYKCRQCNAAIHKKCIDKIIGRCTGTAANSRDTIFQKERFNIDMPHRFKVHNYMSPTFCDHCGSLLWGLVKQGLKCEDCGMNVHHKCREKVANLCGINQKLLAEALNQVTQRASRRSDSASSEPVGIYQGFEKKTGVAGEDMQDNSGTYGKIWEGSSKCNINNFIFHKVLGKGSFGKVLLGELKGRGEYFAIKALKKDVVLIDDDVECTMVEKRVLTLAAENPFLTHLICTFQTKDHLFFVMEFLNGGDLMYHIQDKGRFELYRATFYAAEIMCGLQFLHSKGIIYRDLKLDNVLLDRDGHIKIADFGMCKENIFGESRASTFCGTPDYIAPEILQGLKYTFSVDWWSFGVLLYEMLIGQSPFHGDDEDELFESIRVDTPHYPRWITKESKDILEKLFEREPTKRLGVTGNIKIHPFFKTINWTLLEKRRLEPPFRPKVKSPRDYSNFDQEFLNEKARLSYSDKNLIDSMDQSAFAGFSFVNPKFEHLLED
Sequence of conventional protein kinase C isoform β (P05771 whole entry, canonical isoform): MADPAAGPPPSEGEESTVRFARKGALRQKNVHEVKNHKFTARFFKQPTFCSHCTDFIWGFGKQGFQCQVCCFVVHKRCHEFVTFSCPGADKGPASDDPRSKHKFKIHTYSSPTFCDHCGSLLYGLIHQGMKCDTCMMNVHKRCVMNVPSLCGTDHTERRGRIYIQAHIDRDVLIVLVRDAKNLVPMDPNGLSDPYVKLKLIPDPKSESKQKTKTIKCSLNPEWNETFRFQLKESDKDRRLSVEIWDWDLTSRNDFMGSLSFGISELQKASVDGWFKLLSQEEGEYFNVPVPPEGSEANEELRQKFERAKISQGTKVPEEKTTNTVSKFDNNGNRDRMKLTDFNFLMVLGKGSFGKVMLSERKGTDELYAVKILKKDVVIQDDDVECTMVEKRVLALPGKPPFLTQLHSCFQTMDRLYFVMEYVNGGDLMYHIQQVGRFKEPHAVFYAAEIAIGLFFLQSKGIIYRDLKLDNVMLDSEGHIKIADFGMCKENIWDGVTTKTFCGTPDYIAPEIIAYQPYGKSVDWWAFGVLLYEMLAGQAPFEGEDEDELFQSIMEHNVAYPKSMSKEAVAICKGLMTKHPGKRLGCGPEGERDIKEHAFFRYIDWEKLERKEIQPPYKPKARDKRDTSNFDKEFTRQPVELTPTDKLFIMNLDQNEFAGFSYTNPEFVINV

## CO[C@@H]1[C@H](N(C)C(=O)c2ccccc2)C[C@H]2O[C@]1(C)n1c3ccccc3c3c4c(c5c6ccccc6n2c5c31)C(=O)NC4 [Compound I, midostaurin]
[1]
  inhibition of protein kinase C isoform η (inhibitory concentration): nanomolar concentrations
[2]; C I 0.05 mM with CsA 50 ng/ml
  cpm (mean 3H-thymidine incorporation): 8472 cpm
[2]; C I 0.05 mM with CsA 100 ng/ml
  cpm (mean 3H-thymidine incorporation): 7307 cpm
[2]; C I 0.05 mM, no CsA
  cpm (mean 3H-thymidine incorporation): 11944 cpm
[2]; C I 0.1 mM with CsA 50 ng/ml
  cpm (mean 3H-thymidine incorporation): 5260 cpm
[2]; C I 0.1 mM with CsA 100 ng/ml
  cpm (mean 3H-thymidine incorporation): 3162 cpm
[2]; C I 0.1 mM, no CsA
  cpm (mean 3H-thymidine incorporation): 9005 cpm
[2]; C I 1 mM with CsA 50 ng/ml
  cpm (mean 3H-thymidine incorporation): 1082 cpm
[2]; C I 1 mM with CsA 100 ng/ml
  cpm (mean 3H-thymidine incorporation): 642 cpm
[2]; C I 1 mM, no CsA
  cpm (mean 3H-thymidine incorporation): 2556 cpm
[3]
  intracellular calcium response to PHA: blunts
[4]
  effect on IL-2 production by CD3+ T cells: slightly increases
[5]
  inhibition of protein kinase C isoform β (inhibitory concentration): nanomolar concentrations
[6]
  effect on IFN-gamma production by CD3+ T cells: slightly increases
[7]
  inhibition of protein kinase C isoform ε (inhibitory concentration): nanomolar concentrations
[8]
  inhibition of protein kinase C isoform α (inhibitory concentration): nanomolar concentrations
[9]
  serum levels: micromolar range
[10]
  inhibition of protein kinase C isoform δ (inhibitory concentration): nanomolar concentrations
[11]
  inhibition of protein kinase C isoform γ (inhibitory concentration): nanomolar concentrations
